# Measured values as given in ChEMBL document CHEMBL5365532, “Discovery of Triazinone Derivatives as Novel, Specific, and Direct NLRP3 Inflammasome Inhibitors for the Treatment of DSS-Induced Ulcerative Colitis” (J Med Chem, 2023).
# Activity calls are given as the source filed them. The calls are words filed in the database; no cut-off is given here.
# Test system: THP-1
# Assay: Effect on pro-IL-1beta protein expression in PMA-differentiated human THP-1 cells at 0.5 uM pretreated with compound for 40 mins followed by LPS challenge for 3 hrs by western blot analysis
# Assay type: functional, cell-based
# Details: time 220.0 min
row,Compound,Activity
1,CC(C)(O)c1coc(S(=O)(=O)NC(=O)Nc2c3c(cc4c2CCC4)CCC3)c1,inactive

# Test system: not listed separately
# Assay: Metabolic stability in human liver microsomes
# Assay type: ADME, Microsome
# Details: not given
row,half-life [min],Compound
1,15.2,Cc1ccc(-c2nnc(Cn3nc(C(C)C)n4c(cc5sc(Cl)cc54)c3=O)o2)c(Cl)n1
2,7.66,CC(C)c1nn(Cc2nnc(-c3cc(F)cnc3Cl)o2)c(=O)c2cc3sc(Cl)cc3n12
3,25.1,[2H]C([2H])(c1nnc(-c2ccc(C(F)(F)F)nc2Cl)o1)n1nc(C(C)C)n2c(cc3sc(Cl)cc32)c1=O
4,59.2,CC(C)c1nn([C@H](C)c2nnc(-c3ccc(C(F)(F)F)nc3Cl)o2)c(=O)c2cc3sc(Cl)cc3n12
5,8.86,CC(C)c1nn(Cc2nnc(-c3ccc(F)nc3F)o2)c(=O)c2cc3sc(Cl)cc3n12
6,18.7,CC(C)c1nn(CC(=O)NC2CCOCC2)c(=O)c2cc3sc(Cl)cc3n12

# Test system: Mus musculus
# Assay: Antiinflammatory activity against DSS-induced ulcerative colitis C57BL/6 mouse model assessed as decrease in colon length shortening at 30 mg/kg, ip fed with DSS for 6 days followed by administration with compound for 5 days and measured on day 11
# Assay type: functional, organism-based
# Details: time 5.0 day
row,Compound,Activity
1,CC(C)c1nn(CC(=O)NC2CCOCC2)c(=O)c2cc3sc(Cl)cc3n12,Active

# Test system: Mus musculus
# Assay: Antiinflammatory activity against DSS-induced ulcerative colitis C57BL/6 mouse model assessed as decrease in disease activity index at 30 mg/kg, ip fed with DSS for 6 days followed by administration with compound for 5 days
# Assay type: functional, organism-based
# Details: time 5.0 day
row,Compound,Activity
1,CC(C)c1nn(CC(=O)NC2CCOCC2)c(=O)c2cc3sc(Cl)cc3n12,Active

# Test system: THP-1
# Assay: Effect on NLRP3 protein expression in PMA-differentiated human THP-1 cells at 0.5 uM pretreated with compound for 40 mins followed by LPS challenge for 3 hrs by western blot analysis
# Assay type: functional, cell-based
# Details: time 220.0 min
row,Compound,Activity
1,CC(C)(O)c1coc(S(=O)(=O)NC(=O)Nc2c3c(cc4c2CCC4)CCC3)c1,inactive

# Molecular target: NACHT, LRR and PYD domains-containing protein 3 (Homo sapiens, UniProt Q96P20)
# Assay: Inhibition of NLRP3 inflammasome in PMA-differentiated human THP-1 cells assessed as inhibition of LPS/nigericin-induced IL-1 beta secretion pretreated with LPS for 3 hrs followed by incubation with compound for 40 mins and later stimulated with nigericin for 35 mins by ELISA
# Assay type: cell-based
# Details: not given
# NACHT, LRR and PYD domains-containing protein 3, sequence (Q96P20 whole entry, the tested form may be a part): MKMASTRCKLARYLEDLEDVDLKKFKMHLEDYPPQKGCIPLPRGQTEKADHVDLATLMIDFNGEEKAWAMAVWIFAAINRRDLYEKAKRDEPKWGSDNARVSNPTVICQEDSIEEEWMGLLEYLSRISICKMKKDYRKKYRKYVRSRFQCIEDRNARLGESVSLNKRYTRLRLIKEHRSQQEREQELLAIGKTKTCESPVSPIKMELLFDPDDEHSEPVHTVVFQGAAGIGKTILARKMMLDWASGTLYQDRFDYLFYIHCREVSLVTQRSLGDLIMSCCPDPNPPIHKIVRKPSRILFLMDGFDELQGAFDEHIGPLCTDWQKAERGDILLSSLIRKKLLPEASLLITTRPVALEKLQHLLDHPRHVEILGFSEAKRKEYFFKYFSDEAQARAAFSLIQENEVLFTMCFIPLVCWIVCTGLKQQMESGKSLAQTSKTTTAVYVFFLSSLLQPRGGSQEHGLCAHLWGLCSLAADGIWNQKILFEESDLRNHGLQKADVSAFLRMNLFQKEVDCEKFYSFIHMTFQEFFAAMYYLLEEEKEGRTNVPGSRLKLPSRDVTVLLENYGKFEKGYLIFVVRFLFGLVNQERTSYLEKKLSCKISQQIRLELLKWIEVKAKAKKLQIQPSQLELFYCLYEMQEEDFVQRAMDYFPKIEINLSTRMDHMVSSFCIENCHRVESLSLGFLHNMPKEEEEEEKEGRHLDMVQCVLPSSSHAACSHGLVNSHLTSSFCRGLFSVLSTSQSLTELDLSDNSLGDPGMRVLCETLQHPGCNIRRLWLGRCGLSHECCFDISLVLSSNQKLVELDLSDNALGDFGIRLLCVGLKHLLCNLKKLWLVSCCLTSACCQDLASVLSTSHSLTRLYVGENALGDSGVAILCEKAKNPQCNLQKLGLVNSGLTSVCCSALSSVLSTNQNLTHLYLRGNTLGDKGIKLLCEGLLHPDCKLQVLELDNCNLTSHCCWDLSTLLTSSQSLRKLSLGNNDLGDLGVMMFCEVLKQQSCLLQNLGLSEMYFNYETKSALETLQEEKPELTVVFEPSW
row,IC50 [µM],Compound
1,> 10,O=C(CN1CCn2c(cc3sccc32)C1=O)NC1CCOCC1
2,> 10,CC(C)c1nn(CC(=O)NC2CCOCC2)c(=O)c2cc(NC3COC3)cn12
3,> 10,Cc1cccc(-c2nnc(Cn3nc(C(C)C)n4c(cc5sc(Cl)cc54)c3=O)o2)c1
4,1.9,CC(C)c1nn(Cc2nnc(C3CCCCC3)o2)c(=O)c2cc3sc(Cl)cc3n12
5,> 10,CC(C)c1nn(Cc2nnc(C3CCOCC3)o2)c(=O)c2cc3sccc3n12
6,> 10,CC(C)c1nn(CC(=O)NC2CCOCC2)c(=O)c2ccc(-c3ccsc3)n12
7,> 10,CC(C)c1nn(CC(=O)NC2CCOCC2)c(=O)c2cc3ccccc3n12
8,> 10,CC(C)c1nn(CC(=O)NC2CCOCC2)c(=O)c2ccc(-c3ccc(Cl)s3)n12
9,2.24,CC(C)c1nn(Cc2nnc(-c3cnccn3)o2)c(=O)c2cc3sc(Cl)cc3n12
10,1.24,CC(C)c1nn(Cc2nnc(-c3ccncn3)o2)c(=O)c2cc3sc(Cl)cc3n12
11,> 10,COc1cccc(-c2nnc(Cn3nc(C(C)C)n4c(cc5sc(Cl)cc54)c3=O)o2)c1
12,1.77,CC(C)c1nn(Cc2nnc(-c3cc(C(F)(F)F)cnc3Cl)o2)c(=O)c2cc3sc(Cl)cc3n12
13,> 10,CC(C)c1nn([C@H](C)c2nnc(-c3ccc(C(F)(F)F)nc3Cl)o2)c(=O)c2cc3sc(Cl)cc3n12
14,> 10,CC(C)c1nn(CC(=O)NC2CCOCC2)c(=O)c2cccn12
15,> 10,CC(C)c1nn([C@@H](C)c2nnc(-c3ccc(C(F)(F)F)nc3Cl)o2)c(=O)c2cc3sc(Cl)cc3n12
16,2.41,CC(C)c1nn(Cc2nnc(C3CCOCC3)o2)c(=O)c2cc3sc(Cl)cc3n12
17,> 10,CC(C)c1nn(CC(=O)NC2CCOCC2)c(=O)c2cc(Nc3ccccc3)cn12
18,> 10,CC(C)c1nn(CC(=O)NC2CCOCC2)c(=O)c2cc3cc(Cl)ccc3n12
19,> 10,CC(C)c1nn(Cc2nnc(-c3cccnc3)[nH]2)c(=O)c2cc3sc(Cl)cc3n12
20,1.89,CC(C)c1nn(Cc2nnc(-c3cccnc3)o2)c(=O)c2cc3sc(Cl)cc3n12
21,> 10,O=C(CNC(=O)c1cc2sccc2[nH]1)NC1CCOCC1
22,0.38,CC(C)c1nn(Cc2nnc(-c3cccc(C#N)c3)o2)c(=O)c2cc3sc(Cl)cc3n12
